Measured values as given in patent publication US20020082273A1, “Agents for use in the treatment of alzheimer's disease” (priority 1998, published 2002).
“And” between values parts separate entries of the source, which are not always exact repeats. Equal entries are not always repeated.

Tests used:
[1] = Cu^2+-induced SDS-resistant polymerization of Aβ peptides, western blot image analysis; format: biochemical, human; conditions: for conversion of monomer to dimer / conversion of monomer to trimer: Cu^2+ 30 μM
Experimental: Following incubation (37° C.), aliquots of each reaction (2 ng peptide) were collected at 0 d, 1 d, 3 d and 5 d and western blotted using anti-Aβ monoclonal antibody 8E10 (FIG. 9). Migration of the molecular size markers are indicated (kDa). […] It should be noted that other means of visualizing and/or determining the presence or absence of polymerization other than western blot analysis may be used. Such other means include but are not limited to density sedimentation by centrifugation of the samples.
The generation of SDS-resistant Aβ polymers by metal ions was tested by incubating Cu^2+ (30 μM) or Zn^2+ (30 μM) at pH 6.6, 7.4 and 9.0 with Aβ1-40.
(0-30 μM) at pH 7.4 and 6.6 and the samples analyzed by Western blot and the signal quantitated using the Fluoro-S Image Analysis System (Bio-Rad, Hercules, Calif.) as previously described.

[2] = Aβ aggregation assay (soluble peptide after centrifugation); format: physicochemical, human
Experimental: Aβ stock was diluted to 2.5 μM in 150 mM NaCl and 20 mM glycine (pH 3-4.5), MES (pH 5-6.2) or HEPES (pH 6.4-8.8), with or without metal ions, incubated (30 min., 37° C.), centrifuged (20 min., 10000 g). The amount of protein in the supernatant was determined by the Micro BCA protein assay as described above.
The resultant aggregated particles were sedimented by centrifugation to permit determination of soluble Aβ1-40 in the supernatant. To determine the centrifugation time required to completely sediment the aggregated particles generated under these conditions, Aβ1-40 was incubated for 30 min at 37° C. with no metal, Zn^2+ (100 μM), Cu^2+ (100 μM) and pH (5.5). Reaction mixtures were centrifuged at 10000 g for different times, or ultracentrifuged at 100000 g for 1 h. (FIG. 1). […] Aβ1-40 was incubated (30 min., 37° C.) with no metal, under acidic conditions (pH 5.5), Zn^2+ (100 μM) or Cu^2+ (100 μM), and centrifuged at 10000 g for different time intervals, or at 100,000 g (ultracentrifuged) for 1 h for comparison. All data points are means ±SD, n=3.
Since the conformational state and solubility of Aβ is altered at different pH (Soto, C., et al., J. Neurochem. 63:1191-1198 (1994)), the effects of [H^+] on Zn^2+- and […] Aβ1-40 aggregation were studied. […] All data points are means ±SD, n=3. [H^+] alone precipitates Aβ1-40 (2.5 μM) as the solution is lowered below pH 7.4, and dramatically once the pH falls below 6.3 (FIG. 4A). At pH 5.0, 80% of the peptide is precipitated, but the peptide is not aggregated by acidic environments below pH 5, confirming and extending earlier reports on the effect of pH on Aβ solubility (Burdick, D., J. Biol. Chem. 267:546-554 (1992)). Zn^2+ (30 μM) induced a constant level (˜50%) of aggregation between pH 6.2-8.5, while below pH 6.0, aggregation could be explained solely by the effect of [H^+].

Aβ1-40: synthetic human Aβ peptide, residues 1-40
conversion of monomer to dimer ([1]; pH 6.6, 5 d): 29% | conversion of monomer to trimer ([1]; pH 6.6, 5 d): 2% | conversion of monomer to dimer ([1]; pH 7.4, 5 d): 42% | conversion of monomer to trimer ([1]; pH 7.4, 5 d): 9% | peptide converted to SDS-resistant dimer ([1]; no added metal, pH 6.6, 7.4 or 9.0, 5 d): Less than 4% | SDS-resistant polymers: Dimer ([1]; pH 6.6, [Cu^2+] 0): 2.1 | SDS-resistant polymers: Monomer ([1]; pH 6.6, [Cu^2+] 0): 97.9 | SDS-resistant polymers: Pentamer ([1]; pH 6.6, [Cu^2+] 0): 0 | SDS-resistant polymers: Tetramer ([1]; pH 6.6, [Cu^2+] 0): 0 | SDS-resistant polymers: Trimer ([1]; pH 6.6, [Cu^2+] 0): <0.1 | SDS-resistant polymers: Dimer ([1]; pH 6.6, [Cu^2+] 0.5): 2.2 | SDS-resistant polymers: Monomer ([1]; pH 6.6, [Cu^2+] 0.5): 97.6 | SDS-resistant polymers: Pentamer ([1]; pH 6.6, [Cu^2+] 0.5): 0 | SDS-resistant polymers: Tetramer ([1]; pH 6.6, [Cu^2+] 0.5): 0 | SDS-resistant polymers: Trimer ([1]; pH 6.6, [Cu^2+] 0.5): 0.2 | SDS-resistant polymers: Dimer ([1]; pH 6.6, [Cu^2+] 1): 7.3 | SDS-resistant polymers: Monomer ([1]; pH 6.6, [Cu^2+] 1): 92.6 | SDS-resistant polymers: Pentamer ([1]; pH 6.6, [Cu^2+] 1): 0 | SDS-resistant polymers: Tetramer ([1]; pH 6.6, [Cu^2+] 1): 0 | SDS-resistant polymers: Trimer ([1]; pH 6.6, [Cu^2+] 1): 0.1 | SDS-resistant polymers: Dimer ([1]; pH 6.6, [Cu^2+] 5): 9.8 | SDS-resistant polymers: Monomer ([1]; pH 6.6, [Cu^2+] 5): 90.1 | SDS-resistant polymers: Pentamer ([1]; pH 6.6, [Cu^2+] 5): 0 | SDS-resistant polymers: Tetramer ([1]; pH 6.6, [Cu^2+] 5): 0 | SDS-resistant polymers: Trimer ([1]; pH 6.6, [Cu^2+] 5): 0.1 | SDS-resistant polymers: Dimer ([1]; pH 6.6, [Cu^2+] 10): 16.1 | SDS-resistant polymers: Monomer ([1]; pH 6.6, [Cu^2+] 10): 79.4 | SDS-resistant polymers: Pentamer ([1]; pH 6.6, [Cu^2+] 10): 0 | SDS-resistant polymers: Tetramer ([1]; pH 6.6, [Cu^2+] 10): 0 | SDS-resistant polymers: Trimer ([1]; pH 6.6, [Cu^2+] 10): 4.5 | SDS-resistant polymers: Dimer ([1]; pH 6.6, [Cu^2+] 30): 13.2 | SDS-resistant polymers: Monomer ([1]; pH 6.6, [Cu^2+] 30): 74.5 | SDS-resistant polymers: Pentamer ([1]; pH 6.6, [Cu^2+] 30): 0 | SDS-resistant polymers: Tetramer ([1]; pH 6.6, [Cu^2+] 30): 0 | SDS-resistant polymers: Trimer ([1]; pH 6.6, [Cu^2+] 30): 12.2 | increase in dimerization ([1]; pH 6.6, [Cu^2+] increased from 0.5 to 1 μM): over 3 fold | SDS-resistant polymers: Dimer ([1]; pH 7.4, [Cu^2+] 0): 3.2 | SDS-resistant polymers: Monomer ([1]; pH 7.4, [Cu^2+] 0): 96.8 | SDS-resistant polymers: Pentamer ([1]; pH 7.4, [Cu^2+] 0): 0 | SDS-resistant polymers: Tetramer ([1]; pH 7.4, [Cu^2+] 0): 0 | SDS-resistant polymers: Trimer ([1]; pH 7.4, [Cu^2+] 0): <0.1 | SDS-resistant polymers: Dimer ([1]; pH 7.4, [Cu^2+] 0.5): 4.9 | SDS-resistant polymers: Monomer ([1]; pH 7.4, [Cu^2+] 0.5): 94.8 | SDS-resistant polymers: Pentamer ([1]; pH 7.4, [Cu^2+] 0.5): 0 | SDS-resistant polymers: Tetramer ([1]; pH 7.4, [Cu^2+] 0.5): 0 | SDS-resistant polymers: Trimer ([1]; pH 7.4, [Cu^2+] 0.5): 0.3 | SDS-resistant polymers: Dimer ([1]; pH 7.4, [Cu^2+] 1): 5.9 | SDS-resistant polymers: Monomer ([1]; pH 7.4, [Cu^2+] 1): 93.6 | SDS-resistant polymers: Pentamer ([1]; pH 7.4, [Cu^2+] 1): 0 | SDS-resistant polymers: Tetramer ([1]; pH 7.4, [Cu^2+] 1): 0 | SDS-resistant polymers: Trimer ([1]; pH 7.4, [Cu^2+] 1): 0.6 | SDS-resistant polymers: Dimer ([1]; pH 7.4, [Cu^2+] 5): 14.2 | SDS-resistant polymers: Monomer ([1]; pH 7.4, [Cu^2+] 5): 84.3 | SDS-resistant polymers: Pentamer ([1]; pH 7.4, [Cu^2+] 5): 0 | SDS-resistant polymers: Tetramer ([1]; pH 7.4, [Cu^2+] 5): 0 | SDS-resistant polymers: Trimer ([1]; pH 7.4, [Cu^2+] 5): 1.5 | SDS-resistant polymers: Dimer ([1]; pH 7.4, [Cu^2+] 10): 13.2 | SDS-resistant polymers: Monomer ([1]; pH 7.4, [Cu^2+] 10): 85.2 | SDS-resistant polymers: Pentamer ([1]; pH 7.4, [Cu^2+] 10): 0 | SDS-resistant polymers: Tetramer ([1]; pH 7.4, [Cu^2+] 10): 0 | SDS-resistant polymers: Trimer ([1]; pH 7.4, [Cu^2+] 10): 1.6 | SDS-resistant polymers: Dimer ([1]; pH 7.4, [Cu^2+] 30): 19.1 | SDS-resistant polymers: Monomer ([1]; pH 7.4, [Cu^2+] 30): 76.2 | SDS-resistant polymers: Pentamer ([1]; pH 7.4, [Cu^2+] 30): 0 | SDS-resistant polymers: Tetramer ([1]; pH 7.4, [Cu^2+] 30): 0 | SDS-resistant polymers: Trimer ([1]; pH 7.4, [Cu^2+] 30): 4.7 | available peptide aggregated by Cu^2+ ([2]; Cu^2+ (30 μM), pH 6.8): > 85% and 85% | level of aggregation induced by Zn^2+ ([2]; Zn^2+ 30 μM, pH 6.2-8.5): ~50% | aggregation in the presence of Cu ([2]; pH 7.1): approx. 30%
